ChEMBL document CHEMBL4715844, “Structure-based virtual screening and biological evaluation of novel non-bisphosphonate farnesyl pyrophosphate synthase inhibitors” (Eur J Med Chem, 2020)
The source made the active and inactive calls. The rule behind the calls is not given here.

Key:
[1] = target: T1, Farnesyl pyrophosphate synthase (Rattus norvegicus) (UniProt P05369); test: Inhibition of rat FPPS expressed in Escherichia coli BL21 (DE3) using GPP and IPP as substrate at 10 uM incubated for 10 mins by microplate reader
T1 sequence (whole entry): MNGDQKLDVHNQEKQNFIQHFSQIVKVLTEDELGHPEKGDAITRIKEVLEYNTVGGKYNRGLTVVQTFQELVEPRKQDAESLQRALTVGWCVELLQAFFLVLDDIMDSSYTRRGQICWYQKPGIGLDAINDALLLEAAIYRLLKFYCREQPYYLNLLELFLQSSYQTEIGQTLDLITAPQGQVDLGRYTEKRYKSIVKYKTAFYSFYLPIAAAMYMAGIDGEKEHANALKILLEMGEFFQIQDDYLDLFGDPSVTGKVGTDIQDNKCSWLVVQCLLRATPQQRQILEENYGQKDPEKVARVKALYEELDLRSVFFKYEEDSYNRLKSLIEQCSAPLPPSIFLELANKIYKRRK

[2] = target: T2, Farnesyl pyrophosphate synthase (Rattus norvegicus, UniProt P05369); test: Binding affinity to rat FPPS expressed in Escherichia coli BL21 (DE3) by isothermal titration calorimetry
T2 sequence (P05369 whole entry): T1 sequence (whole entry)

[3] = test system: LoVo; test: Growth inhibition of human LoVo cells at 100 uM incubated for 48 hrs by MTT assay relative to control; format: functional; conditions: read-out: GI
[4] = test system: HCT-116; test: Growth inhibition of human HCT116 cells at 100 uM incubated for 48 hrs by MTT assay relative to control; format: functional; conditions: read-out: GI
[5] = test system: LoVo; test: Cytotoxicity against FPPS-positive human Lovo cells assessed as reduction in cell viability measured after 48 hrs by MTT assay
[6] = test system: HCT-116; test: Cytotoxicity against FPPS-positive human HCT116 cells assessed as reduction in cell viability measured after 48 hrs by MTT assay; conditions: HCT-116, 48 h
[7] = test system: MDA-MB-231; test: Cytotoxicity against FPPS-negative human MDA-MB-231 cells assessed as reduction in cell viability measured after 48 hrs by MTT assay; format: functional, cell-based; conditions: MDA-MB-231, 48 h
[8] = test system: LoVo; test: Cytotoxicity against FPPS-positive human Lovo cells assessed as cell viability at 100 uM in presence of FOH measured after 48 hrs by MTT assay; format: functional; conditions: read-out: Activity
[9] = test system: LoVo; test: Cytotoxicity against FPPS-positive human Lovo cells assessed as cell viability at 100 uM in presence of GGOH measured after 48 hrs by MTT assay; format: functional; conditions: read-out: Activity
[10] = test system: HCT-116; test: Cytotoxicity against FPPS-positive human HCT116 cells assessed as cell viability at 100 uM in presence of FOH measured after 48 hrs by MTT assay; format: functional; conditions: read-out: Activity
[11] = test system: HCT-116; test: Cytotoxicity against FPPS-positive human HCT116 cells assessed as cell viability at 100 uM in presence of GGOH measured after 48 hrs by MTT assay; format: functional; conditions: read-out: Activity
[12] = test system: LoVo; test: Reduction in Ras protein expression in FPPS-positive human LoVo cells upto 75 uM measured after 48 hrs by Western blot analysis; format: functional; conditions: dose microM <=75, time 48.0 hrs
[13] = test system: HCT-116; test: Reduction in Ras protein expression in FPPS-positive human HCT116 cells upto 75 uM measured after 48 hrs by Western blot analysis; format: functional, cell-based; conditions: dose microM <=75, time 48.0 hrs
[14] = test system: LoVo; test: Induction of ROS generation in human Lovo cells assessed as intracellular ROS level at 75 uM by DCFH-DA staining-based flow cytometric analysis (reference value: 9.18%); format: functional
[15] = test system: HCT-116; test: Induction of ROS generation in human HCT116 cells assessed as intracellular ROS level at 75 uM by DCFH-DA staining-based flow cytometric analysis (reference value: 8.91%); format: functional
[16] = test system: LoVo; test: Induction of apoptosis in human Lovo cells assessed as viable cells at 25 uM after 48 hrs by Annexin V/FITC staining based flow cytometric analysis (reference value: 91.1%); format: functional; conditions: read-out: Activity
[17] = test system: LoVo; test: Induction of apoptosis in human Lovo cells assessed as early apoptotic cells at 25 uM after 48 hrs by Annexin V/FITC staining based flow cytometric analysis (reference value: 6.76%); format: functional
[18] = test system: LoVo; test: Induction of apoptosis in human Lovo cells assessed as late apoptotic cells at 25 uM after 48 hrs by Annexin V/FITC staining based flow cytometric analysis (reference value: 1.84%); format: functional
[19] = test system: LoVo; test: Induction of apoptosis in human Lovo cells assessed as necrotic cells at 25 uM after 48 hrs by Annexin V/FITC staining based flow cytometric analysis (reference value: 0.321%); format: functional
[20] = test system: LoVo; test: Induction of apoptosis in human Lovo cells assessed as viable cells at 50 uM after 48 hrs by Annexin V/FITC staining based flow cytometric analysis (reference value: 91.1%); format: functional; conditions: read-out: Activity
[21] = test system: LoVo; test: Induction of apoptosis in human Lovo cells assessed as early apoptotic cells at 50 uM after 48 hrs by Annexin V/FITC staining based flow cytometric analysis (reference value: 6.76%); format: functional
[22] = test system: LoVo; test: Induction of apoptosis in human Lovo cells assessed as late apoptotic cells at 50 uM after 48 hrs by Annexin V/FITC staining based flow cytometric analysis (reference value: 1.84%); format: functional
[23] = test system: LoVo; test: Induction of apoptosis in human Lovo cells assessed as necrotic cells at 50 uM after 48 hrs by Annexin V/FITC staining based flow cytometric analysis (reference value: 0.321%); format: functional
[24] = test system: LoVo; test: Induction of apoptosis in human Lovo cells assessed as viable cells at 75 uM after 48 hrs by Annexin V/FITC staining based flow cytometric analysis (reference value: 91.1%); format: functional; conditions: read-out: Activity
[25] = test system: LoVo; test: Induction of apoptosis in human Lovo cells assessed as early apoptotic cells at 75 uM after 48 hrs by Annexin V/FITC staining based flow cytometric analysis (reference value: 6.76%); format: functional
[26] = test system: LoVo; test: Induction of apoptosis in human Lovo cells assessed as late apoptotic cells at 75 uM after 48 hrs by Annexin V/FITC staining based flow cytometric analysis (reference value: 1.84%); format: functional
[27] = test system: LoVo; test: Induction of apoptosis in human Lovo cells assessed as necrotic cells at 75 uM after 48 hrs by Annexin V/FITC staining based flow cytometric analysis (reference value: 0.321%); format: functional
[28] = Reduction in Ras protein expression in FPPS-positive human HCT116 cells assessed as mean fluorescence intensity upto 75 uM measured after 48 hrs by Western blot analysis relative to untreated control; format: functional, HCT-116; conditions: dose microM <=75
[29] = Reduction in Ras protein expression in FPPS-positive human LoVo cells assessed as mean fluorescence intensity upto 75 uM measured after 48 hrs by Western blot analysis relative to untreated control; format: functional; conditions: dose microM <=75
[30] = test system: HCT-116; test: Induction of apoptosis in human HCT116 cells assessed as viable cells at 25 uM after 48 hrs by Annexin V/FITC staining based flow cytometric analysis (reference value: 92%); format: functional; conditions: read-out: Activity
[31] = test system: HCT-116; test: Induction of apoptosis in human HCT116 cells assessed as early apoptotic cells at 25 uM after 48 hrs by Annexin V/FITC staining based flow cytometric analysis (reference value: 1.26%); format: functional
[32] = test system: HCT-116; test: Induction of apoptosis in human HCT116 cells assessed as late apoptotic cells at 25 uM after 48 hrs by Annexin V/FITC staining based flow cytometric analysis (reference value: 5.63%); format: functional
[33] = test system: HCT-116; test: Induction of apoptosis in human HCT116 cells assessed as necrotic cells at 25 uM after 48 hrs by Annexin V/FITC staining based flow cytometric analysis (reference value: 1.12%); format: functional
[34] = test system: HCT-116; test: Induction of apoptosis in human HCT116 cells assessed as viable cells at 50 uM after 48 hrs by Annexin V/FITC staining based flow cytometric analysis (reference value: 92%); format: functional; conditions: read-out: Activity
[35] = test system: HCT-116; test: Induction of apoptosis in human HCT116 cells assessed as early apoptotic cells at 50 uM after 48 hrs by Annexin V/FITC staining based flow cytometric analysis (reference value: 1.26%); format: functional
[36] = test system: HCT-116; test: Induction of apoptosis in human HCT116 cells assessed as late apoptotic cells at 50 uM after 48 hrs by Annexin V/FITC staining based flow cytometric analysis (reference value: 5.63%); format: functional
[37] = test system: HCT-116; test: Induction of apoptosis in human HCT116 cells assessed as necrotic cells at 50 uM after 48 hrs by Annexin V/FITC staining based flow cytometric analysis (reference value: 1.12%); format: functional
[38] = test system: HCT-116; test: Induction of apoptosis in human HCT116 cells assessed as viable cells at 75 uM after 48 hrs by Annexin V/FITC staining based flow cytometric analysis (reference value: 92%); format: functional; conditions: read-out: Activity
[39] = test system: HCT-116; test: Induction of apoptosis in human HCT116 cells assessed as early apoptotic cells at 75 uM after 48 hrs by Annexin V/FITC staining based flow cytometric analysis (reference value: 1.26%); format: functional
[40] = test system: HCT-116; test: Induction of apoptosis in human HCT116 cells assessed as late apoptotic cells at 75 uM after 48 hrs by Annexin V/FITC staining based flow cytometric analysis (reference value: 5.63%); format: functional
[41] = test system: HCT-116; test: Induction of apoptosis in human HCT116 cells assessed as necrotic cells at 75 uM after 48 hrs by Annexin V/FITC staining based flow cytometric analysis (reference value: 1.12%); format: functional
[42] = test system: LoVo; test: Induction of ROS generation in human Lovo cells assessed as intracellular ROS level at 25 uM by DCFH-DA staining-based flow cytometric analysis (reference value: 9.18%); format: functional
[43] = test system: LoVo; test: Induction of ROS generation in human Lovo cells assessed as intracellular ROS level at […] 50 by DCFH-DA staining-based flow cytometric analysis (reference value: 9.18%); format: functional; conditions: dose 50 µM
[44] = test system: HCT-116; test: Induction of ROS generation in human HCT116 cells assessed as intracellular ROS level at 25 uM by DCFH-DA staining-based flow cytometric analysis (reference value: 8.91%); format: functional
[45] = test system: HCT-116; test: Induction of ROS generation in human HCT116 cells assessed as intracellular ROS level at 50 uM by DCFH-DA staining-based flow cytometric analysis (reference value: 8.91%); format: functional
[46] = test system: LoVo; test: Cytotoxicity against FPPS-positive human Lovo cells assessed as cell viability in presence of FOH measured after 48 hrs by MTT assay; format: functional, cell-based
[47] = test system: LoVo; test: Cytotoxicity against FPPS-positive human Lovo cells assessed as cell viability in presence of GGOH measured after 48 hrs by MTT assay; format: functional, cell-based
[48] = test system: HCT-116; test: Cytotoxicity against FPPS-positive human HCT116 cells assessed as cell viability in presence of FOH measured after 48 hrs by MTT assay; format: functional, cell-based; conditions: HCT-116, 48 h
[49] = test system: HCT-116; test: Cytotoxicity against FPPS-positive human HCT116 cells assessed as cell viability in presence of GGOH measured after 48 hrs by MTT assay; format: functional, cell-based; conditions: HCT-116, 48 h
[50] = test system: MDA-MB-468; test: Growth inhibition of human MDA-MB-468 cells at 100 uM incubated for 48 hrs by MTT assay relative to control; conditions: MDA-MB-468, 48 h, read-out: GI

Compound `COc1ccccc1CN(CCS(=O)(=O)N1CCNCC1)S(=O)(=O)c1ccc(C)cc1` has an inhibition [1] of 24%, a Kd [2] of 14.3 µM and an inhibition of growth at 100 µM [3] of 80%. The inhibition of growth at 100 µM [4] was 80%, the IC50 [5] was 43.6 µM and the IC50 [6] was 51.8 µM. The IC50 [7] was greater than 100 µM, the viability at 100 µM [8] was 19% and the viability at 100 µM [9] was 14.8%. The viability at 100 µM [10] was 28.5%, the viability at 100 µM [11] was 27.9% and the inhibition [12] was “Active”. The inhibition [13] was “Active”, the Activity [14] was 74.6% and the Activity [15] was 60.8%. The viability at 25 µM [16] was 75.9%, the Activity [17] was 17.8% and the Activity [18] was 4.29%. It also gave an Activity [19] of 2.04%, a viability at 50 µM [20] of 52.3% and an Activity [21] of 24.6%. For the same compound, the Activity [22] was 21.2%, the Activity [23] was 1.84% and the viability at 75 µM [24] was 38.1%. It also gave an Activity [25] of 32.7%, an Activity [26] of 26.5% and an Activity [27] of 2.71%. For the same compound, the “fold change (FC)” value [28] was 6.82, the “fold change (FC)” value [29] was 8.13 and the viability at 25 µM [30] was 80.9%. For the same compound, the Activity [31] was 11.99%, the Activity [32] was 5.2% and the Activity [33] was 1.98%. For the same compound, the viability at 50 µM [34] was 67.5%, the Activity [35] was 16.6% and the Activity [36] was 14.6%. It also gave an Activity [37] of 1.28%, a viability at 75 µM [38] of 49.9% and an Activity [39] of 25.8%. It also gave an Activity [40] of 20.4%, an Activity [41] of 3.86% and an Activity [42] of 19.6%. It also gave an Activity [43] of 48%, an Activity [44] of 18.7% and an Activity [45] of 30.9%. It also gave an IC50 [46] of 55.6 µM, an IC50 [47] of 51 µM and an IC50 [48] of 81.1 µM. The IC50 [49] was 73.9 µM and the inhibition of growth at 100 µM [50] was 80%.
`Cc1c(O[C@@H]2O[C@H](CO)[C@@H](O)[C@H](O)[C@H]2O)ccc2c3c(c(=O)oc12)CCCCC3` showed an inhibition [1] of 17.3% and a Kd [2] of 53.8 µM.
